Patent US10723711B2, “1,1,1-trifluoro-3-hydroxypropan-2-yl carbamate derivatives and 1,1,1-trifluoro-4-hydroxybutan-2-yl carbamate derivatives as MAGL inhibitors” (PFIZER INC., priority 2015, dated 2020)
Read-outs that look alike come from different tables or passages of the source.

What was measured:
Format in all cases: biochemical
[1] = molecular target: T1, human recombinant Monoacylglycerol Lipase (Homo sapiens, UniProt Q99685); test: MAGL inhibition enzymatic assay, fluorogenic substrate 7-HCA, IC50 at T=0 min or after 30 minute incubation (T=30 min); conditions: geometric mean of 2-4 determinations unless otherwise indicated
T1 sequence (Q99685 1-303): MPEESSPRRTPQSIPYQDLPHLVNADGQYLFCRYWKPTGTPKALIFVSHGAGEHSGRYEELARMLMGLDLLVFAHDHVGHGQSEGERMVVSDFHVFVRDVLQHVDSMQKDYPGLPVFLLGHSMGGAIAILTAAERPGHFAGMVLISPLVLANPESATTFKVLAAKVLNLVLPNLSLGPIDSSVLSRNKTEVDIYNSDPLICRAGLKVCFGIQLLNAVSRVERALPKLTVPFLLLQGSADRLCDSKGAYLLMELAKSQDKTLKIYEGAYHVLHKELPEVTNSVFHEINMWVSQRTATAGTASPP
Procedure: An equal volume of 7-HCA in assay buffer with 10% DMSO was added either immediately (T=0 min) or after a 30 minute incubation (T=30 min) to initiate the reaction. […] After these dilutions, the final concentration of the test compound ranged from 3 μM to 0.03 nM. […] IC50 values were generated based on a four parameter fit model using ABASE software from IDBS.

[2] = molecular target: T1, human recombinant Monoacylglycerol Lipase; test: MAGL inactivation, enzyme progress curves, kinact/KI; conditions: from enzyme progress curves, T = 0 min protocol; geometric mean of 2-4 determinations unless otherwise indicated
Procedure: Assessment of MAGL inhibition utilizes human recombinant Monoacylglycerol Lipase and the fluorogenic substrate 7-hydroxycoumarinyl arachidonate (7-HCA, Biomol ST-502). 400 nL of a test compound at decreasing concentration (ranging from 150 μM down to 1.5 nM) was spotted into a 384-well back plate (PerkinElmer, 6007279) using a Labcyte Echo, followed by addition of 10 μL of MAGL enzyme in assay buffer (50 mM HEPES, pH 7.4, 100 mM NaCl, 5 mM MgCl2, 0.1% Triton X-100 and 25% glycerin). An equal volume of 7-HCA in assay buffer with 10% DMSO was added either immediately (T=0 min) or after a 30 minute incubation (T=30 min) to initiate the reaction. The final concentration of MAGL enzyme was […] and 7-HCA substrate was 5 μM. After these dilutions, the final concentration of the test compound ranged from 3 μM to 0.03 nM. The reaction was allowed to progress for 60 minutes, after which the plate was read at an Ex/Em of 340/465. Percent inhibitions were calculated based on control wells containing no compound (0% inhibition) and a control compound (e.g., a MAGL inhibitor whose activity is known or was previously reported in the literature, such as one with about 100% inhibition). IC50 values were generated based on a four parameter fit model using ABASE software from IDBS. See e.g., Wang, Y. et al., “A Fluorescence-Based Assay for Monoacylglycerol Lipase Compatible with Inhibitor Screening,” Assay and Drug Development Technologies, 2008, Vol. 6 (3) pp 387-393 (reporting an assay for measuring MAGL activity).
To measure MAGL inactivation, the same protocol for the (T=0 min) MAGL inhibition IC50 assay was performed with data collected every minute to acquire enzyme progress curves at decreasing concentrations of compound.

human recombinant FAAH = molecular target: T2, human recombinant FAAH (Homo sapiens, UniProt O00519); test: FAAH inhibition enzymatic assay, fluorescent substrate Arachidonoyl-AMC, 30 minute incubation; conditions: T = 30 min (30 minute incubation); geometric mean of 2-4 determinations unless otherwise indicated
T2 construct: purchased Cayman 10010183
T2 sequence (O00519 1-579): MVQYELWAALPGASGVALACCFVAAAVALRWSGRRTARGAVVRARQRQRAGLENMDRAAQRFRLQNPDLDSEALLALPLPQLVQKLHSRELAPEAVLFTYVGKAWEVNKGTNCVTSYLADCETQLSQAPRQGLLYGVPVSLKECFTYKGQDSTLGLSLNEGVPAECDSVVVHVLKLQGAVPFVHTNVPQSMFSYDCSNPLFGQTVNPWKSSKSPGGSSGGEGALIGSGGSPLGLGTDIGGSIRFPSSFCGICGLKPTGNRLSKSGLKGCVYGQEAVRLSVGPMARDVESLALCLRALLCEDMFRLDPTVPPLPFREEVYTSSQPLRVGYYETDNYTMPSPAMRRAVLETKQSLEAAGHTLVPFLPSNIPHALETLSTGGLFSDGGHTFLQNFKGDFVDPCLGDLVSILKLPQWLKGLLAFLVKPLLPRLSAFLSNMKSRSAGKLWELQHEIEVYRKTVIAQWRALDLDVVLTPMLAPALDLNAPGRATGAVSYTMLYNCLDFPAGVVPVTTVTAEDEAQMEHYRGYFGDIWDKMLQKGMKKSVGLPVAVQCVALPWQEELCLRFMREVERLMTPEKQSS
Procedure: Assessment of FAAH inhibition utilizes human recombinant FAAH and the fluorescent substrate, Arachidonoyl-AMC. 400 nL of a test compound at decreasing concentrations was spotted into a 384-well back plate (PerkinElmer, 6007279) using a Labcyte Echo, followed by addition of 10 μl of FAAH enzyme (Cayman 10010183) in assay buffer (50 mM Tris, pH 9.0, 1 mM EDTA). After a 30 minute incubation at room temperature, 10 μL of Arachidonyl-AMCA was added in assay buffer with 16% DMSO. Final concentration of FAAH enzyme was 0.0125 Units and AAMCA substrate was used at the Km of 5 μM. […] The reaction was allowed to progress for 60 minutes, after which the plate was read on a Molecular Devices FlexStation reader at an Ex/Em of 355/460. Percent inhibitions were calculated based on controls wells containing either no compound (0% inhibition) or a control compound (e.g., an FAAH inhibitor whose activity is known or was previously reported in the literature, such as one with about 100% inhibition). IC50 values were generated based on a four parameter fit model using ABASE software from IDBS.

[3] = T = 0 min (substrate added immediately), read-out: MAGL (T = 0 min) IC50
[4] = T = 30 min (30 minute incubation), read-out: MAGL (T = 30 min) IC50

| Compound | IC50 [1, 3] [nM] | IC50 [1, 4] [nM] | MAGL kinact/KI [2] | IC50 (human recombinant FAAH) [nM] |
| --- | --- | --- | --- | --- |
| O=C(O[C@H](CO)C(F)(F)F)N1CCC2(CC1)CN(CC1CCCOC1)CCO2 (single isomer, unassigned) [Example 4] | 166 | 19 | 5489 1/s per M |  |
| COc1ccc(-n2ccc([C@H]3[C@@H]4CN(C(=O)O[C@H](CO)C(F)(F)F)C[C@@H]43)n2)nc1 [Example 1, (2R)-1,1,1-trifluoro-3-hydroxypropan-2-yl (1α,5α,6α)-6-[1-(5-methoxypyridin-2-yl)-1H-pyrazol-3-yl]-3-azabicyclo[3.1.0]hexane-3-carboxylate] | 85 | 14 | 7806 1/s per M |  |
| O=C(O[C@H](CO)C(F)(F)F)N1C[C@@H]2[C@H](C1)[C@H]2c1ccn(Cc2ccccn2)n1 [Example 37] | 357 | 27 | 1616 1/s per M |  |
| Cc1ccc(OC2CCN(C(=O)O[C@H](CO)C(F)(F)F)CC2)nc1 [Example 57] | 126 | 10 | 5998 1/s per M |  |
| Cc1cnc(OC2CCN(C(=O)O[C@H](CO)C(F)(F)F)CC2)c(C)c1 [Example 61] | 53 | 5 | 7304 1/s per M |  |
| COc1ccc(-n2ccc([C@H]3[C@@H]4CN(C(=O)O[C@H](CO)C(F)(F)F)C[C@@H]43)n2)cn1 [Example 69] | 104 | 11 | 4621 1/s per M |  |
| C#Cc1ccc(-n2ccc([C@H]3[C@@H]4CN(C(=O)O[C@@H](CO)C(F)(F)F)C[C@@H]43)n2)cc1 [Example 82] | > 2750 | 598 |  |  |
| COP(=O)(OC)OC[C@@H](OC(=O)N1CCC2(CC1)CN(S(=O)(=O)c1ccc(F)cc1)CCO2)C(F)(F)F [Example 86] | 97 | 8 | 132 1/s per M |  |
| CCOP(=O)(OCC)OC[C@@H](OC(=O)N1CCC2(CC1)CN(S(=O)(=O)c1ccc(F)cc1)CCO2)C(F)(F)F [Example 88] | > 3000 | > 3000 |  |  |
| CN(C1COC2(CCN(C(=O)OC(COP(=O)(O)O)C(F)(F)F)CC2)C1)S(=O)(=O)c1ccccc1 (centres unmarked) [Example 148] | > 3000 | > 1230 |  |  |

Other lines, results leading:

| IC50 [1, 3] [nM] | IC50 [1, 4] [nM] | MAGL kinact/KI [2] | IC50 (human recombinant FAAH) [nM] | Compound |
| --- | --- | --- | --- | --- |
| 109 | 24 | 85270 1/s per M |  | O=C(O[C@H](CO)C(F)(F)F)N1CCC2(CC1)CN(S(=O)(=O)c1ccc(F)cc1)C(O)CO2 (mixture of isomers) [Example 29, (2R)-1,1,1-Trifluoro-3-hydroxypropan-2-yl 4-[(4-fluorophenyl)sulfonyl]-3-hydroxy-1-oxa-4,9-diazaspiro[5.5]undecane-9-carboxylate] |
| 145 | 13 | 3478 1/s per M | > 30000 | CC(c1ccc(F)cc1)N1CCOC2(CCN(C(=O)O[C@H](CO)C(F)(F)F)CC2)C1 (mixture of isomers) [Example 43] |
| 192 | 20 | 1897 1/s per M | > 30000 | O=C(O)C(F)(F)F.O=C(O[C@H](CO)C(F)(F)F)N1CCC2(CC1)CC(c1ccc(F)cn1)CO2 (mixture of isomers) [Example 97, (2R)-1,1,1-Trifluoro-3-hydroxypropan-2-yl 3-(5-fluoropyridin-2-yl)-1-oxa-8-azaspiro[4.5]decane-8-carboxylate, trifluoroacetate salt] |
| 349 | 30 |  | 24600 | Cc1ccc(C2COC3(CCN(C(=O)O[C@H](CO)C(F)(F)F)CC3)C2)cn1 (mixture of isomers) [Example 123] |
| 130 | 12 | 8426 1/s per M |  | O=C(O[C@H](CO)C(F)(F)F)N1CCC2(CC1)CC(OCc1ccccc1)CO2 (mixture of isomers) [Example 132] |
| 99 | 17 | 9358 1/s per M |  | CC1N(S(=O)(=O)c2ccc(F)cc2)CCOC12CCN(C(=O)O[C@H](CO)C(F)(F)F)CC2 (single isomer, unassigned) [Example 71] |
| 334 | 30 |  | > 30000 | O=C(O[C@H](CO)C(F)(F)F)N1CCC2(CC1)CC(n1cccn1)CO2 (single isomer, unassigned) [Example 103] |
| 17 | 2 | 44421 1/s per M |  | CN([C@H]1COC2(CCN(C(=O)O[C@H](CO)C(F)(F)F)CC2)C1)S(=O)(=O)c1ccccc1 [Example 15, (2R)-1,1,1-trifluoro-3-hydroxypropan-2-yl (3R)-3-[methyl(phenylsulfonyl)amino]-1-oxa-8-azaspiro[4.5]decane-8-carboxylate] |
| 304 | 32 | 2591 1/s per M |  | O=C(O[C@H](CO)C(F)(F)F)N1CCC2(CC1)CN(Cc1ccc(F)cc1)CCO2 [Example 42] |
| 15 | 1 | 59048 1/s per M |  | Cc1ccc(S(=O)(=O)N2CCOC3(CCN(C(=O)O[C@H](CO)C(F)(F)F)CC3)C2)cc1Cl [Example 59] |
| 37 | 2 | 19870 1/s per M |  | O=C(O[C@H](CO)C(F)(F)F)N1CCC2(CC1)CN(S(=O)(=O)c1ccc(F)c(Cl)c1)CCO2 [Example 60] |
| 29 | 4 | 30591 1/s per M |  | O=C(O[C@H](CO)C(F)(F)F)N1CCC2(CC1)CN(S(=O)(=O)NCc1ccccc1)CCO2 [Example 67] |
| > 3000 | > 3000 |  |  | C[N+](C)(C)CCOP(=O)([O-])OC[C@@H](OC(=O)N1CCC2(CC1)CN(S(=O)(=O)c1ccc(F)cc1)CCO2)C(F)(F)F [Example 90] |
| 423 | 50 |  |  | O=C(O[C@H](CO)C(F)(F)F)N1CCC2(CC1)CCN(C(=O)c1ccccn1)C2 [Example 128] |
| 539 | 48 |  |  | CN(C(=O)c1ccccn1)[C@H]1COC2(CCN(C(=O)O[C@H](CO)C(F)(F)F)CC2)C1 [Example 146] |
